{"source": "PubChem BioAssay AID2060895", "about": "(Molecular Pharmacology Branch, DTP, NCI, 2025);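 for viability, T/C: spheroids exposed to agents for seven days before readout; 100% = DMSO vehicle control wells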", "tested_on": "PDC 899932-113-R3-J6 complex spheroid viability", "assay": "Anticancer human tumor 899932-113-R3-J6-PDC patient-derived melanoma cell line growth inhibition [RAS]", "conditions": "for IC50: curve of first compound; for viability, T/C: stronger effect = lower value", "method_in_brief": "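Tumour cells grown as complex spheroids with HUVEC endothelial cells and mesenchymal stem cells, treated with RAS pathway inhibitor combinations. Each agent spans half-log steps from near clinical Cmax, or 10 microM where Cmax is unknown.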", "data": [{"smiles": "CCc1c2c(nc3ccc(O)cc13)-c1cc3c(c(=O)n1C2)COC(=O)[C@]3(O)CC", "note": "+ CCn1c(-c2cccnc2C(C)OC)c2c3cc(ccc31)N1CCOC(CC(NC(=O)C(C(C)C)N(C)C(=O)C3(F)CCN(C(=O)C#CC(C)(C)N(C)C)CC3)C(=O)N3CCCC(N3)C(=O)OCC(C)(C)C2)C1", "values": [{"measurement": "IC50", "setting": "second compound 0.000949 µM", "result": 19.5, "unit": "nM"}, {"measurement": "IC50", "setting": "second compound 0.003 µM", "result": 19.9, "unit": "nM"}, {"measurement": "IC50", "setting": "second compound 0.00949 µM", "result": 33.6, "unit": "nM"}, {"measurement": "IC50", "setting": "second compound 0.03 µM", "result": 33.6, "unit": "nM"}, {"measurement": "IC50", "setting": "second compound 0.0949 µM", "result": 15.7, "unit": "nM"}, {"measurement": "IC50", "setting": "second compound 0.3 µM", "result": 17.2, "unit": "nM"}, {"measurement": "viability, T/C", "setting": "second compound 0.000949 µM, first compound 0.000949 µM", "result": 93.4, "unit": "%"}, {"measurement": "viability, T/C", "setting": "second compound 0.000949 µM, first compound 0.003 µM", "result": 72, "unit": "%"}, {"measurement": "viability, T/C", "setting": "second compound 0.000949 µM, first compound 0.00949 µM", "result": 56.4, "unit": "%"}, {"measurement": "viability, T/C", "setting": "second compound 0.000949 µM, first compound 0.03 µM", "result": 46.1, "unit": "%"}, {"measurement": "viability, T/C", "setting": "second compound 0.000949 µM, first compound 0.0949 µM", "result": 39.9, "unit": "%"}, {"measurement": "viability, T/C", "setting": "second compound 0.000949 µM, first compound 0.3 µM", "result": 32.3, "unit": "%"}, {"measurement": "viability, T/C", "setting": "second compound 0.003 µM, first compound 0.000949 µM", "result": 95.3, "unit": "%"}, {"measurement": "viability, T/C", "setting": "second compound 0.003 µM, first compound 0.003 µM", "result": 69.1, "unit": "%"}, {"measurement": "viability, T/C", "setting": "second compound 0.003 µM, first compound 0.00949 µM", "result": 57.8, "unit": "%"}, {"measurement": "viability, T/C", "setting": "second compound 0.003 µM, first compound 0.03 µM", "result": 46.7, "unit": "%"}, {"measurement": "viability, T/C", "setting": "second compound 0.003 µM, first compound 0.0949 µM", "result": 42.2, "unit": "%"}, {"measurement": "viability, T/C", "setting": "second compound 0.003 µM, first compound 0.3 µM", "result": 31.1, "unit": "%"}, {"measurement": "viability, T/C", "setting": "second compound 0.00949 µM, first compound 0.000949 µM", "result": 93.8, "unit": "%"}, {"measurement": "viability, T/C", "setting": "second compound 0.00949 µM, first compound 0.003 µM", "result": 78.3, "unit": "%"}, {"measurement": "viability, T/C", "setting": "second compound 0.00949 µM, first compound 0.00949 µM", "result": 61.4, "unit": "%"}, {"measurement": "viability, T/C", "setting": "second compound 0.00949 µM, first compound 0.03 µM", "result": 53.6, "unit": "%"}, {"measurement": "viability, T/C", "setting": "second compound 0.00949 µM, first compound 0.0949 µM", "result": 39.1, "unit": "%"}, {"measurement": "viability, T/C", "setting": "second compound 0.00949 µM, first compound 0.3 µM", "result": 30.8, "unit": "%"}, {"measurement": "viability, T/C", "setting": "second compound 0.03 µM, first compound 0.000949 µM", "result": 93.7, "unit": "%"}, {"measurement": "viability, T/C", "setting": "second compound 0.03 µM, first compound 0.003 µM", "result": 83.6, "unit": "%"}, {"measurement": "viability, T/C", "setting": "second compound 0.03 µM, first compound 0.00949 µM", "result": 59.1, "unit": "%"}, {"measurement": "viability, T/C", "setting": "second compound 0.03 µM, first compound 0.03 µM", "result": 52.7, "unit": "%"}, {"measurement": "viability, T/C", "setting": "second compound 0.03 µM, first compound 0.0949 µM", "result": 41.9, "unit": "%"}, {"measurement": "viability, T/C", "setting": "second compound 0.03 µM, first compound 0.3 µM", "result": 29.7, "unit": "%"}, {"measurement": "viability, T/C", "setting": "second compound 0.0949 µM, first compound 0.000949 µM", "result": 88.3, "unit": "%"}, {"measurement": "viability, T/C", "setting": "second compound 0.0949 µM, first compound 0.003 µM", "result": 66.8, "unit": "%"}, {"measurement": "viability, T/C", "setting": "second compound 0.0949 µM, first compound 0.00949 µM", "result": 54.1, "unit": "%"}, {"measurement": "viability, T/C", "setting": "second compound 0.0949 µM, first compound 0.03 µM", "result": 45.4, "unit": "%"}, {"measurement": "viability, T/C", "setting": "second compound 0.0949 µM, first compound 0.0949 µM", "result": 39.1, "unit": "%"}, {"measurement": "viability, T/C", "setting": "second compound 0.0949 µM, first compound 0.3 µM", "result": 31.5, "unit": "%"}, {"measurement": "viability, T/C", "setting": "second compound 0.3 µM, first compound 0.000949 µM", "result": 71.1, "unit": "%"}, {"measurement": "viability, T/C", "setting": "second compound 0.3 µM, first compound 0.003 µM", "result": 66.5, "unit": "%"}, {"measurement": "viability, T/C", "setting": "second compound 0.3 µM, first compound 0.00949 µM", "result": 52.8, "unit": "%"}, {"measurement": "viability, T/C", "setting": "second compound 0.3 µM, first compound 0.03 µM", "result": 42.9, "unit": "%"}, {"measurement": "viability, T/C", "setting": "second compound 0.3 µM, first compound 0.0949 µM", "result": 42.8, "unit": "%"}, {"measurement": "viability, T/C", "setting": "second compound 0.3 µM, first compound 0.3 µM", "result": 32.2, "unit": "%"}]}, {"smiles": "CCC(CC)c1cc(NC2CCC(N)C2)n2nccc2n1", "note": "(centres undefined) + C=CC(=O)N1CCN(c2nc(OCC3CCCN3C)nc3c(F)c(-c4nc(N)cc(C)c4C(F)(F)F)c(Cl)cc23)C(C)C1", "values": [{"measurement": "IC50", "setting": "second compound 0.00316 µM", "result": 1540, "unit": "nM"}, {"measurement": "IC50", "setting": "second compound 0.01 µM", "result": 1720, "unit": "nM"}, {"measurement": "IC50", "setting": "second compound 0.0316 µM", "result": 1680, "unit": "nM"}, {"measurement": "IC50", "setting": "second compound 0.1 µM", "result": 1730, "unit": "nM"}, {"measurement": "IC50", "setting": "second compound 0.316 µM", "result": 1720, "unit": "nM"}, {"measurement": "IC50", "setting": "second compound 1 µM", "result": 1610, "unit": "nM"}, {"measurement": "viability, T/C", "setting": "second compound 0.00316 µM, first compound 0.0316 µM", "result": 101, "unit": "%"}, {"measurement": "viability, T/C", "setting": "second compound 0.00316 µM, first compound 0.1 µM", "result": 96.1, "unit": "%"}, {"measurement": "viability, T/C", "setting": "second compound 0.00316 µM, first compound 0.316 µM", "result": 105, "unit": "%"}, {"measurement": "viability, T/C", "setting": "second compound 0.00316 µM, first compound 1 µM", "result": 79.9, "unit": "%"}, {"measurement": "viability, T/C", "setting": "second compound 0.00316 µM, first compound 3.16 µM", "result": 0.74, "unit": "%"}, {"measurement": "viability, T/C", "setting": "second compound 0.00316 µM, first compound 10 µM", "result": 0.24, "unit": "%"}, {"measurement": "viability, T/C", "setting": "second compound 0.01 µM, first compound 0.0316 µM", "result": 107, "unit": "%"}, {"measurement": "viability, T/C", "setting": "second compound 0.01 µM, first compound 0.1 µM", "result": 98.1, "unit": "%"}, {"measurement": "viability, T/C", "setting": "second compound 0.01 µM, first compound 0.316 µM", "result": 98.1, "unit": "%"}, {"measurement": "viability, T/C", "setting": "second compound 0.01 µM, first compound 1 µM", "result": 93.9, "unit": "%"}, {"measurement": "viability, T/C", "setting": "second compound 0.01 µM, first compound 3.16 µM", "result": 0.74, "unit": "%"}, {"measurement": "viability, T/C", "setting": "second compound 0.01 µM, first compound 10 µM", "result": 0.62, "unit": "%"}, {"measurement": "viability, T/C", "setting": "second compound 0.0316 µM, first compound 0.0316 µM", "result": 116, "unit": "%"}, {"measurement": "viability, T/C", "setting": "second compound 0.0316 µM, first compound 0.1 µM", "result": 105, "unit": "%"}, {"measurement": "viability, T/C", "setting": "second compound 0.0316 µM, first compound 0.316 µM", "result": 99, "unit": "%"}, {"measurement": "viability, T/C", "setting": "second compound 0.0316 µM, first compound 1 µM", "result": 90, "unit": "%"}, {"measurement": "viability, T/C", "setting": "second compound 0.0316 µM, first compound 3.16 µM", "result": 0.75, "unit": "%"}, {"measurement": "viability, T/C", "setting": "second compound 0.0316 µM, first compound 10 µM", "result": 0.23, "unit": "%"}, {"measurement": "viability, T/C", "setting": "second compound 0.1 µM, first compound 0.0316 µM", "result": 106, "unit": "%"}, {"measurement": "viability, T/C", "setting": "second compound 0.1 µM, first compound 0.1 µM", "result": 111, "unit": "%"}, {"measurement": "viability, T/C", "setting": "second compound 0.1 µM, first compound 0.316 µM", "result": 94.1, "unit": "%"}, {"measurement": "viability, T/C", "setting": "second compound 0.1 µM, first compound 1 µM", "result": 94.1, "unit": "%"}, {"measurement": "viability, T/C", "setting": "second compound 0.1 µM, first compound 3.16 µM", "result": 0.78, "unit": "%"}, {"measurement": "viability, T/C", "setting": "second compound 0.1 µM, first compound 10 µM", "result": 1.07, "unit": "%"}, {"measurement": "viability, T/C", "setting": "second compound 0.316 µM, first compound 0.0316 µM", "result": 96, "unit": "%"}, {"measurement": "viability, T/C", "setting": "second compound 0.316 µM, first compound 0.1 µM", "result": 99.3, "unit": "%"}, {"measurement": "viability, T/C", "setting": "second compound 0.316 µM, first compound 0.316 µM", "result": 102, "unit": "%"}, {"measurement": "viability, T/C", "setting": "second compound 0.316 µM, first compound 1 µM", "result": 93.9, "unit": "%"}, {"measurement": "viability, T/C", "setting": "second compound 0.316 µM, first compound 3.16 µM", "result": 0.72, "unit": "%"}, {"measurement": "viability, T/C", "setting": "second compound 0.316 µM, first compound 10 µM", "result": 0.84, "unit": "%"}, {"measurement": "viability, T/C", "setting": "second compound 1 µM, first compound 0.0316 µM", "result": 109, "unit": "%"}, {"measurement": "viability, T/C", "setting": "second compound 1 µM, first compound 0.1 µM", "result": 103, "unit": "%"}, {"measurement": "viability, T/C", "setting": "second compound 1 µM, first compound 0.316 µM", "result": 98.2, "unit": "%"}, {"measurement": "viability, T/C", "setting": "second compound 1 µM, first compound 1 µM", "result": 84.8, "unit": "%"}, {"measurement": "viability, T/C", "setting": "second compound 1 µM, first compound 3.16 µM", "result": 0.86, "unit": "%"}, {"measurement": "viability, T/C", "setting": "second compound 1 µM, first compound 10 µM", "result": 0.27, "unit": "%"}]}]}
